The values that follow come from publication PMC8534114, “Molecular Basis of a Dominant SARS-CoV-2 Spike-Derived Epitope Presented by HLA-A*02:01 Recognised by a Public TCR” (Cells, 2021).

Test [1] relates to CD8+ T cells. Particulars: cited from earlier work.
The test system of test [2] is CD8+ T cells. The class given is cell-based, human.

For the sequence YLQPRTFLL, in the test with CD8+ T cells [1], the “CD8+ T cell response (in words)” value was “strong CD8+ T cell response” and the “CD8+ T cell stimulation (in words)” value is reported as “strongly stimulate CD8+ T cells”. Further, in the test on CD8+ T cells [2], the “CD8+ T cell response, overall” value is “all able to generate a polyfunctional CD8+ T cell response”.
